Assay results as given in ChEMBL document CHEMBL4706603, “Discovery of VEGFR-2 inhibitors exerting significant anticancer activity against CD44+ and CD133+ cancer stem cells (CSCs): Reversal of TGF-β induced epithelial-mesenchymal transition (EMT) in hepatocellular carcinoma” (Eur J Med Chem, 2020).
The source made the active and inactive calls. The rule behind the calls is not given here.

Experiments:
HepG2 [1] = assay: Antiproliferative activity against human HepG2 cells harboring CD133+ assessed as reduction in cell viability incubated for 24 hrs by MTT assay; assay type: functional, cell-based
HepG2 [2] = assay: Induction of cell cycle arrest in human HepG2 cells harboring CD44+ assessed as increase in G0/G1 phase arrest at IC50 concentration incubated for 48 hrs by PI staining based flow cytometry analysis; assay type: functional
HepG2 [3] = assay: Cytotoxicity against human HepG2 cells assessed as reduction in cell viability incubated for 24 hrs by MTT assay; assay type: functional, cell-based
[4] = Toxicity in Wistar rat assessed as normal ovary with primary to tertiary developing follicles and mature follicles at 2000 mg/kg, po and measured on day 15 by microscopic analysis; assay type: organism-based; conditions: in vivo, 360 h, time 15 day
[5] = Toxicity in Wistar rat assessed as effect on urea level in serum at 5 to 2000 mg/kg, po and measured on day 15; assay type: organism-based; conditions: in vivo, 360 h, dose 5-2000 mg/kg, time 15 day
MCF7 [6] = assay: Cytotoxicity against human MCF7 cells assessed as reduction in cell viability incubated for 24 hrs by MTT assay; assay type: functional, cell-based
[7] = Toxicity in Wistar rat assessed as normal liver parenchyma with normal hepatocytes arranged in hepatic strands and normal vascular tissue and bile duct without inflammatory or pathological changes at 2000 mg/kg, po and measured on day 15 by microscopic analysis; assay type: organism-based; conditions: in vivo, 360 h, time 15 day
HepG2 [8] = assay: Induction of apoptosis in human HepG2 cells assessed as early apoptotic cells by measuring yellowish green coloured nucleus at IC50 incubated for 24 hrs by EtBr/AO staining based fluorescence microscopic analysis; assay type: functional, cell-based
[9] = Toxicity in female Wistar rat assessed as hard abdomen at 2000 mg/kg, po observed for 48 hrs; assay type: organism-based; conditions: in vivo
[10] = Toxicity in Wistar rat assessed as mortality of organism at 5 to 2000 mg/kg, po and observed for 14 days; assay type: organism-based; conditions: in vivo, 336 h, dose 5-2000 mg/kg, time 14 day
[11] = Toxicity in Wistar rat assessed as effect on creatinine level in serum at 5 to 2000 mg/kg, po and measured on day 15; assay type: organism-based; conditions: in vivo, 360 h, dose 5-2000 mg/kg, time 15 day
[12] = Toxicity in Wistar rat assessed as normal cardiac muscles and cardiac fibers with intact length without inflammatory changes at 2000 mg/kg, po and measured on day 15 by microscopic analysis; assay type: organism-based; conditions: in vivo, 360 h, time 15 day
HepG2 [13] = assay: Inhibition of epithelial-mesenchymal transition in TGF-beta-induced human HepG2 cells assessed as vimentin expression at IC50 incubated for 48 hrs by flow cytometry analysis (reference value: 98.19 %); assay type: functional; parameters: scale not given: the % may be the effect or the level left
[14] = Toxicity in female Wistar rat assessed as apathy occurence at 2000 mg/kg, po observed for 48 hrs; assay type: organism-based; conditions: in vivo
HepG2 [15] = assay: Induction of apoptosis in human HepG2 cells assessed as shrinkage of nucleus by measuring orange coloured fluorescence at IC50 incubated for 24 hrs by EtBr/AO staining based fluorescence microscopic analysis; assay type: functional, cell-based
[16] = Inhibition of VEGF expression in human HUVEC assessed as mean fluorescence intensity at IC50 incubated for 48 hrs by FITC based flow cytometry analysis (reference value: 53.91+/- 0.95); assay type: functional
[17] = Retention time in Wistar rat plasma by HPLC-MS analysis; assay type: ADME, cell-free
[18] = Toxicity in Wistar rat assessed as effect on water consumption at 5 to 2000 mg/kg, po and observed for 14 days; assay type: organism-based; conditions: in vivo, 336 h, dose 5-2000 mg/kg, time 14 day
[19] = Inhibition of VEGFR2 expression in human HUVEC assessed as mean fluorescence intensity at IC50 incubated for 48 hrs by FITC based flow cytometry analysis (reference value: 49.24 +/- 0.47); assay type: functional
HepG2 [20] = assay: Antiproliferative activity against human HepG2 cells harboring CD44+ assessed as reduction in cell viability incubated for 24 hrs by MTT assay; assay type: functional, cell-based
HUVEC = assay: Induction of apoptosis in human HUVEC assessed as late apoptotic cells at IC50 incubated for 48 hrs by annexin V-FITC and PI staining based flow cytometry; assay type: functional
[21] = AUMC (0 to infinity) in Wistar rat at 5 mg/kg, po by HPLC-MS analysis; assay type: ADME, organism-based; conditions: in vivo
HepG2 [22] = assay: Induction of cell cycle arrest in human HepG2 cells harboring CD133+ assessed as increase in S phase arrest at IC50 concentration incubated for 48 hrs by PI staining based flow cytometry analysis; assay type: functional
MCF7 [23] = assay: Antimigratory activity against human MCF7 cells assessed as wound healing at IC50 incubated for 24 hrs by inverted microscopic analysis (reference value: 27.64 %); assay type: functional
[24] = Toxicity in Wistar rat assessed as effect on SGOT level at 5 to 2000 mg/kg, po and measured on day 15; assay type: organism-based; conditions: in vivo, 360 h, dose 5-2000 mg/kg, time 15 day
[25] = Tmax in Wistar rat at 5 mg/kg, po measured upto 72 hrs by HPLC-MS analysis; assay type: ADME, organism-based; conditions: in vivo
[26] = Toxicity in Wistar rat assessed as effect on relative weight of spleen at 5 to 2000 mg/kg, po and measured on day 15; assay type: organism-based; conditions: in vivo, 360 h, dose 5-2000 mg/kg, time 15 day
[27] = Toxicity in Wistar rat assessed as effect on food consumption at 5 to 2000 mg/kg, po and observed for 14 days; assay type: organism-based; conditions: in vivo, 336 h, dose 5-2000 mg/kg, time 14 day
[28] = AUC (0 to infinity) in Wistar rat at 5 mg/kg, po by HPLC-MS analysis; assay type: ADME, organism-based; parameters: route oral, time infinity, dose 5 mg/kg; conditions: in vivo
Chorioallantoic membrane = assay: Antiangiogenic activity in chicken fertilized egg chorioallantoic membrane assessed as reduction in membrane growth at 0.01 uM measured upto 72 hrs by CAM assay relative to control; assay type: functional, tissue-based; conditions: Gallus gallus, time hrs <=72
HepG2 [29] = assay: Antimigratory activity against human HepG2 cells assessed as reduction in cell migration at IC50 by transwell migration assay; assay type: functional, cell-based; conditions: TDE = time-dependent effect
[30] = MRT in Wistar rat at 5 mg/kg, po measured upto 72 hrs by HPLC-MS analysis; assay type: ADME, organism-based; conditions: in vivo
HepG2 [31] = assay: Induction of apoptosis in human HepG2 cells assessed as blebbing of nucleus by measuring orange coloured fluorescence at IC50 incubated for 24 hrs by EtBr/AO staining based fluorescence microscopic analysis; assay type: functional, cell-based
MDA-MB-231 [32] = assay: Induction of apoptosis in human MDA-MB-231 cells assessed as necrotic cells at IC50 incubated for 72 hrs by Alexa Fluor488-annexin V/PI staining based flow cytometric analysis (Rvb= 0.0 %); assay type: functional
MDA-MB-231 [33] = assay: Induction of apoptosis in human MDA-MB-231 cells assessed as early apoptotic cells at IC50 incubated for 72 hrs by Alexa Fluor488-annexin V/PI staining based flow cytometric analysis (Rvb= 0.6 %); assay type: functional
HepG2 [34] = assay: Induction of apoptosis in human HepG2 cells assessed as necrotic cells by measuring intense red fluorescence at IC50 incubated for 24 hrs by Alexa Fluor488-annexin V/PI staining based fluorescence analysis; assay type: functional, cell-based
HepG2 [35] = assay: Induction of apoptosis in human HepG2 cells assessed as apoptotic index at IC50 incubated for 24 hrs by EtBr/AO staining based fluorescence microscopic analysis (reference value: 1.99 %); assay type: functional
MDA-MB-231 [36] = assay: Induction of apoptosis in human MDA-MB-231 cells assessed as late apoptotic cells at IC50 incubated for 72 hrs by Alexa Fluor488-annexin V/PI staining based flow cytometric analysis (Rvb= 0.0 %); assay type: functional

CC(=O)Nc1ccc(Oc2cccc3c(NC(=O)Nc4cccc(C(F)(F)F)c4)cccc23)cc1
inhibition (HepG2 [1]): Dose-dependent effect
IC50 (HepG2 [1]; HepG2, 24 h): 2.2 µM
Activity (HepG2 [2]): Active
inhibition (HepG2 [3]): Dose-dependent effect
IC50 (HepG2 [3]; HepG2, 24 h): 0.258 µM
Activity [4]: Non-Toxic
Activity [5]: Non-Toxic
inhibition (MCF7 [6]): Dose-dependent effect
Activity [7]: Non-Toxic
Activity (HepG2 [8]): Active
Activity [9]: Toxic
Activity [10]: Non-Toxic
Activity [11]: Non-Toxic
Activity [12]: Non-Toxic
Activity (HepG2 [13]): 20.44%
Activity [14]: Toxic
Activity (HepG2 [15]): Active
Flu intensity [16]: 21.41
Retention_time [17]: 10.17 min
Activity [18]: Non-Toxic
Flu intensity [19]: 18.41
inhibition (HepG2 [20]): Dose-dependent effect
IC50 (HepG2 [20]; HepG2, 24 h): 3.29 µM
Activity (HUVEC): 6.09%
AUMC [21]: 8929.284 ug/ml.hr^2
Activity (HepG2 [22]): Active
Activity (MCF7 [23]): 3.02%
Activity [24]: Non-Toxic
Tmax [25]: 6 h
Activity [26]: Non-Toxic
Activity [27]: Non-Toxic
AUC(0-inf) [28]: 625 µg·h/mL
inhibition (Chorioallantoic membrane): > 50%
Activity (HepG2 [29]): Tde
MRT [30]: 14.3 h
Activity (HepG2 [31]): Active
Activity (MDA-MB-231 [32]): 0.3%
Activity (MDA-MB-231 [33]): 68.2%
Activity (HepG2 [34]): Active
Activity (HepG2 [35]): 86.66%
Activity (MDA-MB-231 [36]): 4.3%
